How the values were obtained:
Assay type in all cases: in vitro ADME
UGT = UGT activity in human liver subcellular fraction; conditions: 100 µM sesquiterpene, control 7.12 ± 0.35
Description: (§1) Enzyme activities were assayed in human and rat liver cytosolic and microsomal fractions. The enzyme assays (each performed in 4–8 replicates) were repeated three times (HPLC measurement of CYP activities was repeated only twice, Table 3). Inhibition studies were carried out by incubation of specific substrates in the presence of sesquiterpenes (in the range 0–100 µM).
(§2) The assays of all other enzymes were based on spectrophotometric detection of product formed or detection of decreasing substrate/cofactor levels using microplate reader Tecan Infinite M200 in cytosolic or microsomal fractions. Enzyme activities were determined using slight modifications of previously-published methods: carbonyl reducing enzymes (AKR1A, AKR1C, CBR1 [45], NQO1 [46]), UDP-glucuronosyltransferase (UGT [47]), sulfotransferase (SULT [48]), and cytosolic glutathione-S-transferase (GST [49]).
(§3) Sesquiterpenes CNER, TNER and FAR, non-volatile liquids, were pipetted, and proper concentration was calculated according to density. All compounds were dissolved in DMSO. The final solvent concentration in the inhibition assays was 1%, which had no effect on the enzyme activity (data not shown). Non-enzymatic interference of sesquiterpenes with some compounds in the reaction mixtures (e.g., fluorescence enhancing or quenching) was considered and excluded. All experiments were performed in three replicates, if not stated otherwise.
(§4) CNER, TNER and FAR at a fixed concentration of 100 µM were screened for inhibition of cytosolic AKR1A1, AKR1C, CBR1, NQO1, SULT, and GST, and microsomal CYPs and UGT. The degree of inhibition caused by sesquiterpenes was compared with non-inhibited control reactions, which contained solvent without sesquiterpenes.

NQO1 [1] = biological target: T1, NQO1 (Rattus norvegicus, UniProt P05982); assay: NQO1 activity in rat liver subcellular fraction; conditions: 100 µM sesquiterpene, control 25.3 ± 5.6
T1 construct: Frozen liver (both rat and human) was thawed; from tissue; host or cells: rat liver cytosolic fraction
T1 sequence (P05982 2-274 limits assumed): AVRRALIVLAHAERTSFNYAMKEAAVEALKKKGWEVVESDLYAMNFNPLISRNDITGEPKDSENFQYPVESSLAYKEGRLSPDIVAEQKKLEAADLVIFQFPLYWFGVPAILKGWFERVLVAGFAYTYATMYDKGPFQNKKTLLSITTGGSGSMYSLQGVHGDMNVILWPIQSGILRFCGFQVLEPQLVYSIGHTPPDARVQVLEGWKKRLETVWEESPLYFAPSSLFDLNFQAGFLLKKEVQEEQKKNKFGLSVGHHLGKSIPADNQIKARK
Description: as §1, §2, §3, §4

NQO1 [2] = biological target: T2, NQO1 (Homo sapiens, UniProt P15559); assay: NQO1 activity in human liver subcellular fraction; conditions: 100 µM sesquiterpene, control 6.38 ± 0.34
T2 construct: Frozen liver (both rat and human) was thawed; from tissue; host or cells: human liver cytosolic fraction
Description: as §1, §2, §3, §4

SULT = SULT activity in rat liver subcellular fraction; conditions: 100 µM sesquiterpene, control 8.74 ± 0.52
Description: as §1, §2, §3, §4

CYP1A2 = biological target: T3, CYP1A2 (Homo sapiens, UniProt P05177); assay: CYP1A2 (EROD activity, 7-ethoxyresorufin O-deethylation) in human liver microsomes; conditions: for Specific Activity, CYP1A2 (EROD activity): in the presence of 100 µM sesquiterpene, control 1.88 ± 0.19; for inhibition at 5 µM: liver microsomes, probe 7-ethoxyresorufin, human, 5 µM inhibitor
T3 construct: Frozen liver (both rat and human) was thawed; from tissue; host or cells: human liver microsomal fraction
T3 sequence (P05177 1-516): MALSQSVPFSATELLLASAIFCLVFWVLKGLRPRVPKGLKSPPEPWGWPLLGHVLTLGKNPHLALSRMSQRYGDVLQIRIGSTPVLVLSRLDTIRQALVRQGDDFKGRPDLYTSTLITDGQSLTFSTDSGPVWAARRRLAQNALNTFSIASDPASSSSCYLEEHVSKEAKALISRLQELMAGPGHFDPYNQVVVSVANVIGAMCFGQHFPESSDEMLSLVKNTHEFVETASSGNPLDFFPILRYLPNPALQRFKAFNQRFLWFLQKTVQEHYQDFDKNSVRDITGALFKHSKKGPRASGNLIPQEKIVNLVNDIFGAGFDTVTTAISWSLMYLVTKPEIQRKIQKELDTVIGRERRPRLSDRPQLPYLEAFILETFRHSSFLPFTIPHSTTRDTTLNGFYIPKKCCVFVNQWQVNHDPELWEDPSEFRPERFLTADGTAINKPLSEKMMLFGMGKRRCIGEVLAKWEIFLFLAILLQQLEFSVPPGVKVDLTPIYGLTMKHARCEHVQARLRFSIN
Description: as §1
Enzyme activities of individual CYP forms were measured according to established protocols. The following microsomal CYP activities were tested: CYP2A6, coumarin 7-hydroxylation; CYP2B6, 7-ethoxy-4-(trifluoromethyl)coumarin 7-deethylation, CYP2C9, diclofenac 4′-hydroxylation, CYP2C19 assay, S-mephenytoin 4′-hydroxylation, CYP2D6 on bufuralol 1′-hydroxylation, CYP2E1, chlorzoxazone 6-hydroxylation and CYP3A4, testosterone 6β-hydroxylation, and midazolam 1′-hydroxylation. Activities were measured using the Prominence HPLC system (Shimadzu, Kyoto, Japan), equipped with a LiChroCART 250-4 LiChrospher 100 RP-18 column or Chromolith®HighResolution RP-18 end-capped column (Merck, Darmstadt, Germany) and UV or fluorescence detection, according to the cited literature. Further incubation details are described either in the corresponding references, as well as in the papers from this laboratory e.g., [42, 43, 44]. CYP1A2, 7-ethoxyresorufin O-deethylation, and CYP3A4/2B6 (human), CYP2B1 (rat), benzyloxyresorufin O-debenzylation were measured using the microplate reader Tecan Infinite M200 (Tecan Group; Mannedorf, Switzerland).
Sesquiterpenes CNER, TNER and FAR, non-volatile liquids, were pipetted, and proper concentration was calculated according to density. All compounds were dissolved in DMSO. […] All experiments were performed in three replicates, if not stated otherwise.
as §4
The concentration of sesquiterpenes required for 50% inhibition of enzyme activity, the IC50 value, was determined. […] The IC50 values for each sesquiterpene were determined by plotting sigmoidal dose response curves of specific enzyme activity vs. logarithm of sesquiterpene concentration using GraphPad Prism version 6.07 for Windows (GraphPad Software Inc., La Jolla, CA, USA).
The kinetic inactivation study of the CYP1A2 (EROD activity) and CYP2B/3A (BROD activity), both in rat and human, with TNER, was performed to find out the mechanism of enzyme inhibition by this sesquiterpene. Mechanism of EROD and BROD inhibition was tested at the final ethoxyresorufin or benzyloxyresorufin concentrations 0.5–5.0 µM. The concentration of TNER was 5.0 µM.
Experimental data were fitted to the Michaelis-Menten equation, basic kinetic parameters were determined using the program GraphPad Prism version 6.07 for Windows. The type of inhibition was estimated using a Lineweaver-Burk (double-reciprocal) plot.

T2 sequence (P15559 whole entry): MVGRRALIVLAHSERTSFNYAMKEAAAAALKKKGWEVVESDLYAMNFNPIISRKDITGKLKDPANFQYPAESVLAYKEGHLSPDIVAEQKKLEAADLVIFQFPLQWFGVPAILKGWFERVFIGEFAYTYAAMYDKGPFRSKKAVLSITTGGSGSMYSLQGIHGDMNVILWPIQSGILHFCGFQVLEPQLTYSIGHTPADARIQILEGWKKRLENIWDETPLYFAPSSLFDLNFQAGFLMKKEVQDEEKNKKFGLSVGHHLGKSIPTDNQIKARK

Row | Compound | Specific activity, UGT (UGT) | Specific activity, NQO1 (NQO1 [1]) | Specific activity, NQO1 (NQO1 [2]) | Specific activity, SULT (SULT) | IC50 (CYP1A2; human liver microsomes) | Specific Activity, CYP1A2 (EROD activity) (CYP1A2; human liver microsomes) | inhibition at 5 µM (CYP1A2) | Ki (CYP1A2; human liver microsomes, EROD activity) | type of inhibition, CYP1A2 (EROD) (CYP1A2; human microsomes, 5 µM TNER, ethoxyresorufin 0.5–5.0 µM)
1 | CC(C)=CCC/C(C)=C/CC/C(C)=C/CO [FAR, farnesol] | 7.49 ± 1.08 nmol/mg/min | 22.2 ± 3.3 nmol/mg/min | 5.23 ± 1.03 nmol/mg/min | 8.55 ± 0.30 nmol/mg/min | 1830 nM | 0.083 ± 0.005 pmol/mg/min | 77% | – | –
2 | C=CC(C)(O)CC/C=C(\C)CCC=C(C)C (stereo not drawn) [TNER, trans-nerolidol] | 7.08 ± 0.39 nmol/mg/min | 21.8 ± 2.4 nmol/mg/min | 5.53 ± 0.51 nmol/mg/min | 8.48 ± 0.28 nmol/mg/min | 8690 nM | 0.287 ± 0.013 pmol/mg/min | 38% | 920 ± 520 nM | competitively
3 | C=CC(C)(O)CC/C=C(/C)CCC=C(C)C (stereo not drawn) [CNER, cis-nerolidol] | 7.09 ± 0.34 nmol/mg/min | 21.7 ± 3.6 nmol/mg/min | 5.44 ± 0.82 nmol/mg/min | 8.74 ± 0.26 nmol/mg/min | 2490 nM | 0.163 ± 0.005 pmol/mg/min | 50% | – | –
